Test results as given in patent US8680058B2, “Selectively targeted antimicrobial peptides and the use thereof” (priority 2006, dated 2014).
“Also recorded” adds a separate entry of the source. Read-outs that look alike come from different tables or passages of the source. No end group written: not given here.

How the values were obtained:
S. sanguinis = assay type: cell-based, S. sanguinis NY101
Method: (§1) 1.3 Determination of antimicrobial activity. The general antimicrobial activity of peptides against planktonic bacteria was determined by a MIC assay in TH broth (all oral streptococci) (Qi et al., 2005).
(§2) S. mutans, S. gordonii Challis (DL1), and S. sanguinis NY101 strains were grown in Todd Hewitt (TH, Fisher) broth medium at 37° C. under anaerobic conditions (80% N2, 10% CO2, and 10% H2). S. mutans strains UA159 (Ajdic et al., 2002), ATCC 25175, and T8 (Rogers, 1975), are wild-type clinical isolates, while comD is a knockout mutant that was constructed previously from the wild-type UA140 background (Qi et al., 2005). Luciferase expressing S. mutans strain JM11 was constructed from UA140 as described (Merritt et al., 2005). Exponentially growing bacterial cells were diluted to ˜1×10^5 cfu/mL in TH and placed into 96-well plates (Fisher). Peptides were then serially diluted and added to the bacteria.

S. gordonii = assay type: cell-based, S. gordonii Challis (DL1)
Method: as §1, §2

S. mutans = assay type: cell-based, Streptococcus mutans
Method: as §1, §2

P. aeruginosa = assay: microbe, parasite or virus in culture; assay type: cell-based, Pseudomonas aeruginosa
Method: 2.3 Antimicrobial Activities. The general antimicrobial activities of G10KHc, G10, and tobramycin against clinical isolates of P. aeruginosa were evaluated by minimum inhibitory concentration (MIC) assay as previously described (Eckert et al., 2006) and shown in Table 5. MICs are reported in μM, though for familiarity, 1 μM tobramycin=0.468 μg/mL. P. aeruginosa were grown to log phase and adjusted to ˜1×10^5 cfu/mL in Mueller-Hinton (MH) broth and added to 96-well plates. Two-fold serial dilutions of peptide were then added to bacteria and the plates incubated for 18-24 hours at 37° C. MIC was determined as the concentration of peptide present in the last clear well (no growth). […] In contrast to tobramycin, G10KHc was also effective against aminoglycoside and multiple-antibiotic resistant P. aeruginosa isolated from CF patients (AGR10, MR15). Additionally, as mucoid P. aeruginosa are often associated with reduced susceptibility to antimicrobial agents, we were encouraged to find that G10KHc was active against one such strain, PDO300.

S. gordonii biofilms = assay: Single-species biofilm regrowth after peptide exposure, S. gordonii; assay type: cell-based; details: 25 μM peptide, 1 min exposure
Method: (§3) 1.5 Examination of antimicrobial activity against single-species biofilms. To initiate biofilm formation, ˜1×10^7 bacteria per well (from overnight cultures) were seeded in TH medium (100 μL) to a 96-well flat-bottom plate. For all streptococci except S. mutans, the medium was supplemented with 0.5% (w/v) mannose and glucose. S. mutans UA159 biofilms were grown with 0.5% (w/v) sucrose. Plates were then centrifuged briefly to pellet the cells, and bacteria were incubated for 3-4 hours at 37° C. for biofilm formation. After incubation, the supernatant was carefully removed and biofilms were treated with 25 μM peptide in 1×PBS or 1×PBS alone for 1 min. The peptide solution was then removed and 100 μL TH was added to further dilute any remaining peptide. To minimize biofilm loss, cells were briefly centrifuged after TH addition, after which the supernatants were removed and fresh medium plus appropriate sugars were returned. Cells were then incubated anaerobically at 37° C. and biofilm growth was monitored over time by measuring absorbance at OD600 with a microplate spectrophotometer (Benchmark Plus, BioRad).

S. mutans biofilms = assay: Single-species biofilm regrowth after peptide exposure, S. mutans; assay type: cell-based, Streptococcus mutans; details: 25 μM peptide, 1 min exposure
Method: as §3

S. sanguinis biofilms = assay: Single-species biofilm regrowth after peptide exposure, S. sanguinis; assay type: cell-based; details: 25 μM peptide, 1 min exposure
Method: as §3

[1] = system: S. mutans JM11 mixed with S. mitis, S. sobrinus, S. gordonii, S. sanguinis; assay: Selectivity against multi-species biofilms of oral streptococci; assay type: cell-based
Method: Selectivity of STAMPs against multi-species biofilms of oral streptococci. To measure selectivity of STAMPs, mixed biofilms were seeded to 48-well plates. Streptococcus mitis, S. sobrinus, S. gordonii, and S. sanguinis were mixed with S. mutans strain JM11 (spectinomycin resistant) at a 1:1:1:1:10 ratio, total of 10^5 cells/well. Biofilms were grown overnight in TH medium with 1% sucrose, 1% dextrose, and 1% mannose, for 18-24 h. Mature biofilms were treated with PBS plus STAMP as described for the single-species biofilm assay, with the same controls. After treatment, biofilms were washed 2× in PBS and then physically disrupted with a sterile pipette tip in 100 μL PBS per well. Cell suspensions were then serially diluted 10-fold to 10^-6. Diluted suspensions were then plated on TH medium and TH supplemented with spectinomycin, 800 μg/mL. The total amount of biofilm killing (all streptococci) was determined by counting colonies from TH-only plates. Controls: 100% of untreated corresponds to the number of cfu/mL recorded from untreated biofilms, 0% survival was obtained from ethanol sterilized samples. S. mutans killing was determined from quantitating colonies on TH-spectinomycin plates, and combined total cfu/mL, was utilized to calculate the ratio of S. mutans:total population. 1:1 ratio indicates no selectivity.

S. mutans UA159 and comD = assay: Binding of fluorescently labeled peptides to S. mutans (fluorescence microscopy); parameters: species or system Streptococcus mutans; details: fluorescently labeled peptide
Text: To determine whether there was a region within the CSPC16 sequence that was responsible for S. mutans-specific binding, we synthesized a series of fluorescently labeled CSPC16 fragments, and analyzed their ability to bind to S. mutans. The following strategies were utilized in dissecting the CSPC16 sequence (Table 2): First, a series of fragments were constructed by generating deletions of 3 or 4 amino acids, from the N to C terminus, across the CSPC16 sequence (C16-1 to C16-5). Peptides lacking larger portions of the C or N termini of CSPC16 were also synthesized (C16-6 to C16-12). Additionally, peptides with Arg to […] (a positive to negative change in charge) (C16-4) or Phe to Gly substitutions (for a general decrease in hydrophobicity) (C16-3), as well as peptides representing a 4-residue Ala scan of the C16 sequence were constructed (C 16-15 to C16-18). […] These peptides include C16 (SEQ ID NO 1), C16-3 (SEQ ID NO 39), C16-4 (SEQ ID NO 40), C16-5 (SEQ ID NO 41), C16-6 (SEQ ID NO 42), C16-11 (SEQ ID NO 47), C16-12 (SEQ ID NO 5), C16-16 (SEQ ID NO 51), C16-17 (SEQ ID NO 52), and C16-18 (SEQ ID NO 53).
(§4) 1.2 Fluorescent labeling of peptides and fluorescence microscopy. Aliquots of CSPC16 (SEQ ID NO 2), CSP-fragment peptides (Table 2), and C16G2 (SEQ ID NO 4) were labeled with carboxyfluorescein (Sigma) as described previously (Eckert et al., 2006). After peptide cleavage but prior to the bacterial labeling assay, fluorescence intensity per μM peptide was checked fluorimetrically (λex=488 nm, λem=520 nm VersaFluor, BioRad) and found to be relatively similar (data not shown). To evaluate the level of peptide binding to bacteria, streptococci from an overnight culture (OD600 of 0.7-1.0) were washed with phosphate buffered saline (1×PBS), diluted 1:2 into 1×PBS, and exposed to peptide (16 μM) for 5 min at 25° C. After incubation with peptide, unbound agent was removed from the bacteria by three cycles of centrifugation (5 min, 16,000×g) and resuspension in 1×PBS. Labeling of oral streptococci was evaluated using brightfield and fluorescence microscopy (Nikon E400) at a 40× magnification. The digital images utilized for the semi-quantitative binding assessment were acquired with the factory-supplied software (SPOT, Diagnostics).

other oral streptococci = assay: Binding of fluorescently labeled peptides to other oral streptococci; details: fluorescently labeled peptide
Text: as §4

Substance: FKKFWKWFRRF-OH [Peptide S6L3-33, FKKFWKWFRRF]
- MIC (S. sanguinis): 40 ± 7.5 µM
- MIC (S. gordonii): 20 ± 5.0 µM
- MIC (S. mutans; S. mutans UA159): 7.0 ± 3.0 µM
- MIC (S. mutans; S. mutans comD): 6.5 ± 2.5 µM

Substance: KKHRKHRKHRKH (synthetic targeting peptide Cat-1 domain, KH domain)
- antimicrobial activity of targeting domain alone (P. aeruginosa; data not shown): does not have any antimicrobial activity

Substance: KKHRKHRKHRKHGGSGGSKNLRRIIRKGIHIIKKYG [Peptide G10KHc]
- MIC range (P. aeruginosa): 0.5 to 29 µM
- mean MIC (P. aeruginosa): 6.22 µM

Substance: KLFKFLRKHLL-OH [BD2.21, KLFKFLRKHLL]
- MIC (S. mutans; planktonic S. mutans): 5.5 µM

Substance: KNLRIIRKGIHIIKKY-NH2 [Peptide G2, KNLRIIRKGIHIIKKY*]
- biofilm re-growth after treatment (OD600) (S. gordonii biofilms): grew similarly to untreated biofilms
- MIC (S. sanguinis): 33.6 ± 7.5 µM
- biofilm re-growth after treatment (OD600) (S. mutans biofilms): unaffected
- MIC (S. gordonii): 41.3 ± 14.0 µM
- biofilm re-growth after treatment (OD600) (S. sanguinis biofilms): grew similarly to untreated biofilms
- MIC (S. mutans; S. mutans 25175): 14.8 ± 2.0 µM
- MIC (S. mutans; S. mutans T8): 14.2 ± 1.5 µM
- MIC (S. mutans; S. mutans UA159): 12.1 ± 4.5 µM
- MIC (S. mutans; S. mutans comD): 15.3 ± 4.2 µM

Substance: NIFEYFLEGGGKLFKFLRKHLL (synthetic selectively/specifically targeted antimicrobial peptide (STAMP) chimeric polypeptide 1903-BD2.21)
- impact on total cfu/mL population / other oral streptococci (in words) ([1]; multi-species biofilm, 20 min): some impact on other oral streptococci
- reduction of total population ([1]; multi-species biofilm, 20 min): about 30%

Substance: SGSLSTFFRLFNRSFTQALGK-OH [CSP, reference compound]
- biofilm re-growth after treatment (OD600) (S. gordonii biofilms): grew similarly to untreated biofilms
- MIC (S. sanguinis; S. sanguinis): >60 µM
- biofilm re-growth after treatment (OD600) (S. mutans biofilms): unaffected
- MIC (S. gordonii; S. gordonii): >60 µM
- biofilm re-growth after treatment (OD600) (S. sanguinis biofilms): grew similarly to untreated biofilms
- MIC (S. mutans; S. mutans 25175): >60 µM
- MIC (S. mutans; S. mutans T8): >60 µM
- MIC (S. mutans; S. mutans UA159): 50.8 ± 9.3 µM
- MIC (S. mutans; S. mutans comD): >60 µM

Substance: TFFRAAAASFTQALGK (synthetic competence stimulating peptide (CSP) fragment peptide C16-16 with 4-residue Ala scan)
- binding to S. mutans (in words) (S. mutans UA159 and comD): binding but at a weaker intensity than CSPC16

Substance: TFFRL (synthetic competence stimulating peptide (CSP) fragment peptide C16-11 with C-terminal deletion)
- binding to S. mutans (in words) (S. mutans UA159 and comD): binding but at a weaker intensity than CSPC16

Substance: TFFRLFNR-OH [CSPM8, TFFRLFNR]
- MIC (S. sanguinis): >60 µM
- MIC (S. gordonii): >60 µM
- MIC (S. mutans; S. mutans 25175): >60 µM
- MIC (S. mutans; S. mutans T8): >60 µM
- MIC (S. mutans; S. mutans UA159): >60 µM
- MIC (S. mutans; S. mutans comD): >60 µM
- binding to other oral streptococci (other oral streptococci): little or no binding

Substance: TFFRLFNRAAAAALGK (synthetic competence stimulating peptide (CSP) fragment peptide C16-17 with 4-residue Ala scan)
- binding to S. mutans (in words) (S. mutans UA159 and comD): binding but at a weaker intensity than CSPC16

Substance: TFFRLFNRGGGKNLRIIRKGIHIIKKY-NH2 [Peptide M8G2]
- MIC (S. sanguinis): 15 ± 2.5 µM
- biofilm re-growth after treatment (OD600) (S. mutans biofilms): capable of inhibiting the recovery of S. mutans biofilms
- MIC (S. gordonii): 20 ± 5.0 µM
- biofilm re-growth after treatment (OD600) (S. sanguinis biofilms): not those of S. sanguinis
- MIC (S. mutans; S. mutans 25175): 3.5 ± 0.5 µM
- MIC (S. mutans; S. mutans UA159): 3.25 ± 1.9 µM
- MIC (S. mutans; S. mutans comD): 4.0 ± 2.0 µM

Substance: TFFRLFNRSFTQALGK-OH [CSPC16, TFFRLFNRSFTQALGK]
- biofilm re-growth after treatment (OD600) (S. gordonii biofilms): grew similarly to untreated biofilms
- MIC (S. sanguinis): >60 µM
- biofilm re-growth after treatment (OD600) (S. mutans biofilms): unaffected
- MIC (S. gordonii): >60 µM
- biofilm re-growth after treatment (OD600) (S. sanguinis biofilms): grew similarly to untreated biofilms
- MIC (S. mutans; S. mutans 25175): >60 µM
- MIC (S. mutans; S. mutans T8): >60 µM
- MIC (S. mutans; S. mutans UA159): >60 µM
- MIC (S. mutans; S. mutans comD): >60 µM
- binding to S. mutans (in words) (S. mutans UA159 and comD): detected as bound; also recorded: could specifically bind to S. mutans
- binding to other oral streptococci (other oral streptococci): not to other oral streptococci

Substance: TFFRLFNRSFTQALGKGGGKLFKFLRKHLL (synthetic selectively/specifically targeted antimicrobial peptide (STAMP) chimeric polypeptide C16-BD2.21)
- ratio of surviving S. mutans to total Streptococci ([1]; 1:1 ratio indicates no selectivity): 0.075
- impact on total cfu/mL population / other oral streptococci (in words) ([1]; multi-species biofilm, 20 min): no impact on the total cfu/mL population

Substance: TFFRLFNRSGGGFKKFWKWFRRF-OH [Peptide M8-33]
- MIC (S. sanguinis): 20 ± 2.0 µM
- biofilm re-growth after treatment (OD600) (S. mutans biofilms): capable of retarding S. mutans biofilm growth
- MIC (S. gordonii): 10 ± 2.5 µM
- biofilm re-growth after treatment (OD600) (S. sanguinis biofilms): not affected
- MIC (S. mutans; S. mutans UA159): 2.5 ± 2.0 µM
- MIC (S. mutans; S. mutans comD): 2.5 ± 2.0 µM

Substance: TFFRLFTQALGK (synthetic competence stimulating peptide (CSP) fragment peptide C16-3 with internal deletion)
- binding to S. mutans (in words) (S. mutans UA159 and comD): binding but at a weaker intensity than CSPC16

Substance: TRRRLFNRSFTQALGKSGGGFKKFWKWFRRF-OH [Peptide C16-33]
- MIC (S. sanguinis): 13.3 ± 5.8 µM
- biofilm re-growth after treatment (OD600) (S. mutans biofilms): capable of retarding S. mutans biofilm growth
- MIC (S. gordonii): 14.6 ± 5.0 µM
- biofilm re-growth after treatment (OD600) (S. sanguinis biofilms): not affected
